From DBAASP
Converted amounts (≈) assume the structure as drawn.

Assays:
Assay in all cases: ≥ marks a high value that may be exact or a test limit, other limits are often not marked, values filed in µg/mL are converted to µM
Pseudomonas aeruginosa = test system: Pseudomonas aeruginosa
[1] = test system: Staphylococcus aureus ATCC 6538P
Staphylococcus aureus = test system: Staphylococcus aureus
Escherichia coli JM109 = test system: Escherichia coli JM109
[2] = test system: Escherichia coli ATCC 2592
[3] = test system: Staphylococcus epidermidis ATCC 12228
[4] = test system: Micrococcus luteus ATCC 9341
[5] = test system: Candida albicans ATCC 36232
[6] = test system: Corynebacterium diphtheriae ATCC 8024
[7] = test system: Pseudomonas aeruginosa ATCC 9027
[8] = test system: Staphylococcus aureus ATCC 6538
[9] = test system: Shigella flexneri ATCC 203
[10] = test system: Bacillus subtilis ATCC 6633
[11] = test system: Escherichia coli NIHJ JC-2
Candida albicans = test system: Candida albicans
[12] = test system: Staphylococcus aureus FDA 209P JC-1
[13] = test system: Bacillus cereus ATCC 11778
[14] = test system: Escherichia coli ATCC 35218
[15] = test system: Salmonella enterica subsp. arizonae ATCC 13314
[16] = test system: Escherichia coli ATCC 25922
Escherichia coli O157 = test system: Escherichia coli O157
[17] = test system: Enterococcus faecalis ATCC 29212
[18] = test system: Streptococcus pyogenes ATCC 19615

With CC[C@H](C)[C@H](NC(=O)[C@H](C)NC(=O)[C@H](CC(C)C)NC(=O)[C@H](Cc1c[nH]c2ccccc12)NC(=O)[C@H](CC(C)C)NC(=O)[C@H](C)N)C(=O)N[C@@H](CCCN=C(N)N)C(=O)N[C@@H](CCCN=C(N)N)C(=O)N[C@@H](CCCN=C(N)N)C(N)=O [ALWLAIRRR] the MIC (Pseudomonas aeruginosa) was 3.46 µM (≈ 4 µg/mL), the MIC [1] was 1.73 µM (≈ 2 µg/mL) and the MIC (Staphylococcus aureus) was 27.7 µM (≈ 32 µg/mL). The MIC (Escherichia coli JM109) was 2.6 µM (≈ 3 µg/mL).
Compound CC(C)[C@H](NC(=O)[C@H](CS)NC(=O)[C@@H](NC(=O)[C@H](CCCN=C(N)N)NC(=O)[C@H](CCCCN)NC(=O)CNC(=O)[C@H](CC(N)=O)NC(=O)[C@@H](N)CS)C(C)C)C(=O)N[C@@H](CS)C(=O)N[C@@H](CCCN=C(N)N)C(N)=O [CNGKRVCVCR] has an MIC [2] of 6.59 µM (≈ 7.49 µg/mL), an MIC [3] of 13.2 µM (≈ 15 µg/mL) and an MIC [4] of 11 µM (≈ 12.5 µg/mL). The MIC (Staphylococcus aureus) was > 87.9 µM, the MIC [5] was 13.2 µM (≈ 15 µg/mL) and the MIC [6] was 6.59 µM (≈ 7.49 µg/mL). The MIC [7] was 44 µM (≈ 50 µg/mL), the MIC [8] was 26.4 µM (≈ 30 µg/mL) and the MIC [9] was 26.4 µM (≈ 30 µg/mL). It also gave an MIC [10] of 13.2 µM (≈ 15 µg/mL).
With CC(C)C[C@H](NC(=O)CN)C(=O)N[C@@H](CC(C)C)C(=O)N[C@@H](CC(=O)O)C(=O)N[C@@H](CO)C(=O)N[C@@H](CC(C)C)C(=O)N[C@@H](CCCCN)C(=O)NCC(=O)N[C@@H](Cc1ccccc1)C(=O)N[C@@H](C)C(=O)N[C@@H](C)C(=O)N[C@H](C(=O)N[C@@H](C)C(=O)NCC(=O)N[C@@H](CCCCN)C(=O)NCC(=O)N[C@H](C(=O)N[C@@H](CC(C)C)C(=O)N[C@@H](CCC(N)=O)C(=O)N[C@@H](CO)C(=O)N[C@@H](CC(C)C)C(=O)N[C@@H](CC(C)C)C(=O)N[C@@H](CO)C(=O)N[C@H](C(=O)N[C@@H](C)C(=O)N[C@@H](CO)C(=O)N[C@H]1CSSC[C@@H](C(=O)O)NC(=O)[C@H]([C@@H](C)O)NC(=O)[C@H](CCCCN)NC(=O)[C@H](C)NC(=O)[C@H](CC(C)C)NC(=O)[C@H](CCCCN)NC1=O)[C@@H](C)O)C(C)C)[C@@H](C)O [GLLDSLKGFAATAGKGVLQSLLSTASCKLAKTC] the MIC [11] was 1.23 µM (≈ 4 µg/mL), the MIC (Candida albicans) was > 40 µM and the MIC [10] was 0.615 µM (≈ 2 µg/mL). The MIC [12] was 2.46 µM (≈ 8 µg/mL).
With CC(C)C[C@H](NC(=O)[C@H](CCC(N)=O)NC(=O)[C@H](Cc1ccc(O)cc1)NC(=O)[C@H](CCCN=C(N)N)NC(=O)CNC(=O)[C@H](C)NC(=O)[C@H](C)NC(=O)[C@@H](NC(=O)[C@H](CO)NC(=O)[C@H](Cc1ccc(O)cc1)NC(=O)[C@@H](NC(=O)[C@H](CCCCN)NC(=O)[C@H](Cc1ccc(O)cc1)NC(=O)[C@H](CCCN=C(N)N)NC(=O)[C@@H]1CCCN1C(=O)[C@H](CC(C)C)NC(=O)[C@H](Cc1ccc(O)cc1)NC(=O)[C@@H](NC(=O)[C@H](CCCCN)NC(=O)[C@H](CC(C)C)NC(=O)[C@H](CCCN=C(N)N)NC(=O)[C@@H]1CCCN1)C(C)C)C(C)C)[C@@H](C)O)C(=O)N[C@@H](CC(C)C)C(=O)N[C@@H](CO)C(=O)N[C@@H](CCCN=C(N)N)C(=O)N[C@@H](Cc1ccc(O)cc1)C(=O)N[C@@H](Cc1c[nH]c2ccccc12)C(N)=O [PRLKVYLPRYKVYSTAAGRYQLLSRYW] the MIC [13] was ≥ 75 µM, the MIC [3] was 150 µM (≈ 502 µg/mL) and the MIC [14] was ≥ 150 µM. For the same compound, the MIC [15] was ≥ 150 µM, the MIC [4] was 19 µM (≈ 63.6 µg/mL) and the MIC [16] was 150 µM (≈ 502 µg/mL). For the same compound, the MIC [7] was > 150 µM, the MIC (Escherichia coli O157) was ≥ 150 µM and the MIC [17] was 150 µM (≈ 502 µg/mL). For the same compound, the MIC [18] was ≥ 38 µM.
